Tests used:
Format in all cases: in vivo
[1] = test system: ABUTH: velvetleaf (Abutilon theophrasti); assay: Post-emergent herbicidal test, velvetleaf; conditions: post-emergence, 336 h, 14 days after application, read-out: Visual Growth Reduction (%) 14 Days After Application ABUTH
Procedure: (§1) Post-Emergent Test: Seeds or nutlets of the desired test plant species were planted in Sun Gro Metro-Mix® 360 planting mixture, which typically has a pH of 6.0 to 6.8 and an organic matter content of about 30 percent, in plastic pots with a surface area of 64 square centimeters (cm^2). When required to ensure good germination and healthy plants, a fungicide treatment and/or other chemical or physical treatment was applied. The plants were grown for 7-21 d in a greenhouse with an approximate 15 h photoperiod which was maintained at about 23-29° C. during the day and 22-28° C. during the night. Nutrients and water were added on a regular basis and supplemental lighting was provided with overhead metal halide 1000-Watt lamps as necessary. The plants were employed for testing when they reached the first or second true leaf stage.
(§2) A weighed amount, determined by the highest rate to be tested, of each test compound was placed in a 25 mL glass vial and was dissolved in 4 mL of a 97:3 v/v mixture of acetone and DMSO to obtain concentrated stock solutions. […] The concentrated stock solutions obtained were diluted with 20 mL of an aqueous mixture containing acetone, water, isopropyl alcohol, DMSO, Atplus 411F crop oil concentrate, and Triton® X-155 surfactant in a 48.5:39:10:1.5:1.0:0.02 v/v ratio to obtain spray solutions containing the highest application rates. Additional application rates were obtained by serial dilution of 12 mL of the high rate solution into a solution containing 2 mL of a 97:3 v/v mixture of acetone and DMSO and 10 mL of an aqueous mixture containing acetone, water, isopropyl alcohol, DMSO, Atplus 411F crop oil concentrate, and Triton X-155 surfactant in a 48.5:39:10:1.5:1.0:0.02 v/v ratio to obtain ½×, ¼×, ⅛× and 1/16× rates of the high rate. Compound requirements are based upon a 12 mL application volume at a rate of 187 liters per hectare (L/ha). Formulated compounds were applied to the plant material with an overhead Mandel track sprayer equipped with 8002E nozzles calibrated to deliver 187 L/ha over an application area of 0.503 square meters at a spray height of 18 inches (43 cm) above the average plant canopy height. Control plants were sprayed in the same manner with the solvent blank.
(§3) The treated plants and control plants were placed in a greenhouse as described above and watered by subirrigation to prevent wash-off of the test compounds. After 14 d, the condition of the test plants as compared with that of the untreated plants was determined visually and scored on a scale of 0 to 100 percent where 0 corresponds to no injury and 100 corresponds to complete kill.

[2] = test system: BRSNN: oilseed rape, canola (Brassica napus); assay: Post-emergent herbicidal test, oilseed rape; conditions: post-emergence, 336 h, 14 days after application, read-out: Visual Growth Reduction (%) 14 Days After Application BRSNN
Procedure: as §1, §2, §3

[3] = test system: CIRAR: Canada thistle (Cirsium arvense); assay: Post-emergent herbicidal test, Canada thistle; conditions: post-emergence, 336 h, 14 days after application, read-out: Visual Growth Reduction (%) 14 Days After Application CIRAR
Procedure: as §1, §2, §3

[4] = test system: EPHHL: wild poinsettia (Euphorbia heterophylla); assay: Post-emergent herbicidal test, wild poinsettia; conditions: post-emergence, 336 h, 14 days after application, read-out: Visual Growth Reduction (%) 14 Days After Application EPHHL
Procedure: as §1, §2, §3

[5] = test system: IPOHE: ivyleaf morningglory (Ipomoea hederacea); assay: Post-emergent herbicidal test, ivyleaf morningglory; conditions: post-emergence, 336 h, 14 days after application, read-out: Visual Growth Reduction (%) 14 Days After Application IPOHE
Procedure: as §1, §2, §3

[6] = test system: VIOTR: wild violet (Viola tricolor); assay: Post-emergent herbicidal test, wild violet; conditions: post-emergence, 336 h, 14 days after application, read-out: Visual Growth Reduction (%) 14 Days After Application VIOTR
Procedure: as §1, §2, §3

[7] = test system: CYPES: yellow nutsedge (Cyperus esculentus); assay: Post-emergent herbicidal test, yellow nutsedge; conditions: post-emergence, 336 h, 14 days after application, read-out: Visual Growth Reduction (%) 14 Days After Application CYPES
Procedure: as §1, §2, §3

[8] = test system: DIGSA: large crabgrass (Digitaria sanguinalis); assay: Post-emergent herbicidal test, large crabgrass; conditions: post-emergence, 336 h, 14 days after application, read-out: Visual Growth Reduction (%) 14 Days After Application DIGSA
Procedure: as §1, §2, §3

[9] = test system: ECHCG: barnyardgrass (Echinochloa crus-galli); assay: Post-emergent herbicidal test, barnyardgrass; conditions: post-emergence, 336 h, 14 days after application, read-out: Visual Growth Reduction (%) 14 Days After Application ECHCG
Procedure: as §1, §2, §3

[10] = test system: SETFA: giant foxtail (Setaria faberi); assay: Post-emergent herbicidal test, giant foxtail; conditions: post-emergence, 336 h, 14 days after application, read-out: Visual Growth Reduction (%) 14 Days After Application SETFA
Procedure: as §1, §2, §3

[11] = test system: SORVU: shattercane (Sorghum bicolor); assay: Post-emergent herbicidal test, shattercane; conditions: post-emergence, 336 h, 14 days after application, read-out: Visual Growth Reduction (%) 14 Days After Application SORVU
Procedure: as §1, §2, §3

For `C#CCOC(=O)c1nc(-c2ccc(Cl)c3c2OCO3)c(F)c(N)c1Cl` [Compound 1C], the pest or weed control at 17.5 g/ha ([1]; 17.5 g ai/ha) was 100%, the pest or weed control at 35 g/ha ([1]; 35 g ai/ha) was 100% and the pest or weed control at 70 g/ha ([1]; 70 g ai/ha) was 100%. For the same compound, the pest or weed control at 140 g/ha ([1]; 140 g ai/ha) was 100%, the pest or weed control at 17.5 g/ha ([2]; 17.5 g ai/ha) was 95% and the pest or weed control at 35 g/ha ([2]; 35 g ai/ha) was 97%. For the same compound, the pest or weed control at 70 g/ha ([2]; 70 g ai/ha) was 100%, the pest or weed control at 140 g/ha ([2]; 140 g ai/ha) was 100% and the pest or weed control at 17.5 g/ha ([3]; 17.5 g ai/ha) was 70%. It also gave a pest or weed control at 35 g/ha ([3]; 35 g ai/ha) of 85%, a pest or weed control at 70 g/ha ([3]; 70 g ai/ha) of 90% and a pest or weed control at 140 g/ha ([3]; 140 g ai/ha) of 90%. It also gave a pest or weed control at 17.5 g/ha ([4]; 17.5 g ai/ha) of 10%, a pest or weed control at 35 g/ha ([4]; 35 g ai/ha) of 10% and a pest or weed control at 70 g/ha ([4]; 70 g ai/ha) of 10%. The pest or weed control at 140 g/ha ([4]; 140 g ai/ha) was 25%, the pest or weed control at 17.5 g/ha ([5]; 17.5 g ai/ha) was 0% and the pest or weed control at 35 g/ha ([5]; 35 g ai/ha) was 0%. It also gave a pest or weed control at 70 g/ha ([5]; 70 g ai/ha) of 0%, a pest or weed control at 140 g/ha ([5]; 140 g ai/ha) of 10% and a pest or weed control at 17.5 g/ha ([6]; 17.5 g ai/ha) of 65%. The pest or weed control at 35 g/ha ([6]; 35 g ai/ha) was 65%, the pest or weed control at 70 g/ha ([6]; 70 g ai/ha) was 60% and the pest or weed control at 140 g/ha ([6]; 140 g ai/ha) was 65%. The pest or weed control at 17.5 g/ha ([7]; 17.5 g ai/ha) was 30%, the pest or weed control at 35 g/ha ([7]; 35 g ai/ha) was 80% and the pest or weed control at 70 g/ha ([7]; 70 g ai/ha) was 85%. It also gave a pest or weed control at 140 g/ha ([7]; 140 g ai/ha) of 80%, a pest or weed control at 17.5 g/ha ([8]; 17.5 g ai/ha) of 0% and a pest or weed control at 35 g/ha ([8]; 35 g ai/ha) of 0%. For the same compound, the pest or weed control at 70 g/ha ([8]; 70 g ai/ha) was 0%, the pest or weed control at 140 g/ha ([8]; 140 g ai/ha) was 60% and the pest or weed control at 17.5 g/ha ([9]; 17.5 g ai/ha) was 0%. For the same compound, the pest or weed control at 35 g/ha ([9]; 35 g ai/ha) was 0%, the pest or weed control at 70 g/ha ([9]; 70 g ai/ha) was 0% and the pest or weed control at 140 g/ha ([9]; 140 g ai/ha) was 0%. For the same compound, the pest or weed control at 17.5 g/ha ([10]; 17.5 g ai/ha) was 0%, the pest or weed control at 35 g/ha ([10]; 35 g ai/ha) was 0% and the pest or weed control at 70 g/ha ([10]; 70 g ai/ha) was 50%. For the same compound, the pest or weed control at 140 g/ha ([10]; 140 g ai/ha) was 60%, the pest or weed control at 17.5 g/ha ([11]; 17.5 g ai/ha) was 10% and the pest or weed control at 35 g/ha ([11]; 35 g ai/ha) was 50%. For the same compound, the pest or weed control at 70 g/ha ([11]; 70 g ai/ha) was 70% and the pest or weed control at 140 g/ha ([11]; 140 g ai/ha) was 70%.
